Assay [1] deals with HEK293 cells. The assay is described as follows: PCR validation of LMI070-induced novel exons with primers binding the flanking exons. The class given is cell-based, Human. The following applies: top 5 candidate genes; cDNA from HEK293 cells treated with LMI070 vs DMSO. How it is done: RNA extraction, RT-PCR, and Splicing assays. Total RNA was extracted using Trizol (Life Technologies) according to the manufacturer’s protocol, with the exception of 1 µL Glycoblue (Life Technologies) in addition to the aqueous phase on the isopropanol precipitation step and a single wash with cold 70% ethanol. To determine HTT expression levels after transfection, RNA samples were quantified by spectrophotometry and subsequently cDNAs generated from […] of total RNA with random hexamers (TaqMan RT reagents, Applied Biosystems). […] Relative HTT gene expression was determined using the ddCt method. […] Splicing was determined by PCR using the Phusion High-Fidelity polymerase (Thermofisher) and PCR products separated on a 2.5% agarose gel pre-stained with EtBr and spliced-in and spliced-out band densitometry performed using with the ChemiDoc Imaging System (BioRad) and Image Lab analysis software. Splicing induction from mouse tissues was determined using two custom TaqMan assays designed to determine total or LMI070-spliced in mRNA transcripts. The percentage of induction was determined by dividing the average Ct novel exon and average Ct Total, relative to control animals injected with AAV virus plus vehicle. […]

The subject of assay [2] is SF3B3-on-eGFP cassette. Kind of assay: SF3B3-on-eGFP cassette expression in HEK293 cells. The class given is cell-based, Human. The following applies: LMI070 vs DMSO. How it is done:
Cell culture, transfection, and LMI070/RG7800 treatment. Human embryonic kidney (HEK293) cells (obtained from CHOP Research Vector Core stock) were maintained in DMEM media containing 10% Fetal Bovine Serum (FBS), 1% L-Glutamine and 1% penicillin/streptomycin at 37° C. with 5% CO2. Cells were cultured in 24 well plates and transfected at 80-90% confluence using Lipofectamine 2000 transfection reagent, according to the manufacturer’s protocol. For all experiments, 4 hours after plasmid transfection, cells were treated with LMI070 (MedChemExpress, HY-19620, suspended in DMSO) or RG7800 (MedChemExpress, HY-101792A, suspended in H2O) at the indicated concentrations. Cells were tested for mycoplasma by Research Vector Core. None of the cells used in the study were listed in ICLAC database of commonly misidentified cell lines.
Next, a series of switch-on cassettes were developed from the top 4 LMI070-responsive exons found in the RNA-Seq dataset. […] HEK293 cells were transfected with the candidate cassettes, treated with LMI070, and luciferase activity or eGFP expression determined 24 h later. […] Similarly, eGFP expression was only detected in cells transfected with the SF3B3-on-eGFP cassette in response to LMI070 treatment (FIG. 3D).

SMILES strings stand for the structures.

Turning to `CC1(C)CC(Oc2ccc(-c3ccc(-c4cn[nH]c4)cc3O)nn2)CC(C)(C)N1` [LMI070, 5-(1H-Pyrazol-4-yl)-2-(6-((2,2,6,6-tetramethylpiperidin-4-yl)oxy)pyridazin-3-yl)phenol], in assay [1], the “amplification of the novel exons by PCR” value is “Robust amplification”. The “eGFP expression from SF3B3-on-eGFP cassette” value in assay [2] was “only detected”.
